Series [1] deals with Beta-2 adrenergic receptor (Homo sapiens, UniProt P07550). Put plainly: Binding affinity to human beta-2 adrenergic receptor by radioligand binding assay.
The target in the next series is T1, D(4) dopamine receptor (Homo sapiens, UniProt P21917).
T1 sequence (P21917 whole entry): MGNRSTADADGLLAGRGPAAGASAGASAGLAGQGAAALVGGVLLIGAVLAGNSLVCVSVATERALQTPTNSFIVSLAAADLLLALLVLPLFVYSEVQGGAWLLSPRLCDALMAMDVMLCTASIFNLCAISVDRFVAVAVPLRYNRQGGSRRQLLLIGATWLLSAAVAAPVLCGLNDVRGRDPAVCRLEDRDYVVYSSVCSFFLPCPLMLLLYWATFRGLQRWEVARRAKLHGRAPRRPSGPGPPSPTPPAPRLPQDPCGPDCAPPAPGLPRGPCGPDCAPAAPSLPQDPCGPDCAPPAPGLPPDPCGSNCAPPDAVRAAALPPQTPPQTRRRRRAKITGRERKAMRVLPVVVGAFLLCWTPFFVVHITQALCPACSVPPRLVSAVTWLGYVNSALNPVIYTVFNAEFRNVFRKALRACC
Put plainly: Binding affinity to human dopamine D4 receptor by radioligand binding assay.

The target in series [2] is Sodium-dependent serotonin transporter (Homo sapiens, UniProt P31645). Put plainly: Binding affinity to human SERT by radioligand binding assay.
Series [3] deals with T2, Muscarinic acetylcholine receptor M5 (Homo sapiens, UniProt P08912).
T2 sequence (P08912 whole entry): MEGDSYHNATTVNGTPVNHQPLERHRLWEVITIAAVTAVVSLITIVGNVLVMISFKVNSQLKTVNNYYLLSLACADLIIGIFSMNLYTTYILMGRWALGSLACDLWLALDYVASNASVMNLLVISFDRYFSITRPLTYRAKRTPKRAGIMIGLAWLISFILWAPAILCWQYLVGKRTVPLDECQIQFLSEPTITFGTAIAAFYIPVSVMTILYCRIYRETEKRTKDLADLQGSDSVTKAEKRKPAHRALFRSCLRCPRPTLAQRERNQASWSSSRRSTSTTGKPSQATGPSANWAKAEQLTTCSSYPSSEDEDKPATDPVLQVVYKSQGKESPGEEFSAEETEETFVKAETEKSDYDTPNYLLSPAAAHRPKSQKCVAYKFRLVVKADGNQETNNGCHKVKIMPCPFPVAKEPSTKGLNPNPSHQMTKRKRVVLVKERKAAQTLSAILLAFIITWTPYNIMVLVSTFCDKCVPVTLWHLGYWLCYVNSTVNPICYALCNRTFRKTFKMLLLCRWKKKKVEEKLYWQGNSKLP
The experiment in a line: Binding affinity to human muscarinic acetylcholine M5 receptor by radioligand binding assay.

Another series addresses D(3) dopamine receptor (Homo sapiens, UniProt P35462). The experiment in a line: Binding affinity to dopamine D3 receptor (unknown origin) by radioligand binding assay.
Series [4] has as its target 5-hydroxytryptamine receptor 7 (Homo sapiens, UniProt P34969). The experiment in a line: Binding affinity to human 5HT7 receptor by radioligand binding assay.
In series [5] the target is T3, Alpha-2C adrenergic receptor (Homo sapiens, UniProt P18825).
T3 sequence (P18825 whole entry): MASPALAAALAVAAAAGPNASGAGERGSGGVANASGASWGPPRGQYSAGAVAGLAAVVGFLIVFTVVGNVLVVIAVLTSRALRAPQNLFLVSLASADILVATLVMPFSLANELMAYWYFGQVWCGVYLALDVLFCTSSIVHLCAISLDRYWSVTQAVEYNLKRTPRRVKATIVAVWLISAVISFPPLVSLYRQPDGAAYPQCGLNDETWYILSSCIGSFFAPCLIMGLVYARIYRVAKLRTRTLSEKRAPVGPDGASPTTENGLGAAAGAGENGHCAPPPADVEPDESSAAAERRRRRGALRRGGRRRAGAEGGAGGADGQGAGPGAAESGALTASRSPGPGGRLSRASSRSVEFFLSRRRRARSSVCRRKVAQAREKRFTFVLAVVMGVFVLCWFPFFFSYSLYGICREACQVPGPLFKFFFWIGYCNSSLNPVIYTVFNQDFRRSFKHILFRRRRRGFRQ
Put plainly: Binding affinity to human alpha-2C adrenergic receptor by radioligand binding assay.

For series [6], the target named is 5-hydroxytryptamine receptor 6 (Homo sapiens, UniProt P50406). The experiment in a line: Binding affinity to human 5HT6 receptor by radioligand binding assay.
For series [7], the target named is T4, Alpha-2A adrenergic receptor (Homo sapiens, UniProt P08913).
T4 sequence (P08913 whole entry): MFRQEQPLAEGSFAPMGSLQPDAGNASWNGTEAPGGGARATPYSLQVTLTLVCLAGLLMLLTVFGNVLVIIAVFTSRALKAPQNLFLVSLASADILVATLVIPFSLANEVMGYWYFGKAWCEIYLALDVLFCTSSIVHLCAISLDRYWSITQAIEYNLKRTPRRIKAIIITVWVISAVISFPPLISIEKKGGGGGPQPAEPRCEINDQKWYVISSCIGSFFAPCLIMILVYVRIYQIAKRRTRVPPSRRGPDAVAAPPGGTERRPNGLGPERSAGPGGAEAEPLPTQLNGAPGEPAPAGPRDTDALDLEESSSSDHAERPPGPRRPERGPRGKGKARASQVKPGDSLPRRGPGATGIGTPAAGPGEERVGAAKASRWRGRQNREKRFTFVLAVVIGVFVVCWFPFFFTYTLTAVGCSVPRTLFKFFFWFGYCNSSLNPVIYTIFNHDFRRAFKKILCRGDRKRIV
The experiment in a line: Binding affinity to human alpha-2A adrenergic receptor by radioligand binding assay.

Series [8] has as its target T5, 5-hydroxytryptamine receptor 1A (Homo sapiens, UniProt P08908).
T5 sequence (P08908 whole entry): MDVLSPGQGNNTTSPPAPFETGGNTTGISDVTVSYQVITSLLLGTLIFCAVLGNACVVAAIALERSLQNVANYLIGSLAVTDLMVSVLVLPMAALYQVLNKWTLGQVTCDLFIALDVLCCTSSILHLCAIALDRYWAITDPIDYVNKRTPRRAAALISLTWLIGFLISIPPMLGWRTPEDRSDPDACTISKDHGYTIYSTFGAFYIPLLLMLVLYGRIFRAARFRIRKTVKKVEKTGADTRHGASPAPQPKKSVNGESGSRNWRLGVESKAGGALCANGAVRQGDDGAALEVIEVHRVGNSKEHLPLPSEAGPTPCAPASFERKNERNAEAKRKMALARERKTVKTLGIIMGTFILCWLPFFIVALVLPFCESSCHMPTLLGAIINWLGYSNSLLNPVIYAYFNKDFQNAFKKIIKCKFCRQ
The experiment in a line: Binding affinity to human 5HT1A receptor by radioligand binding assay.

A further series deals with Histamine H2 receptor (Homo sapiens, UniProt P25021). Put plainly: Binding affinity to histamine H2 receptor (unknown origin) by radioligand binding assay.
A further series has as its system Mus musculus. The experiment in a line: Cataleptic activity in C57BL/6J mouse at 0.01 to 30 mg/kg, ip measured after 60 mins. Type of series: ADME, organism-based. The conditions noted are these: in vivo, 1 h.
For the next series, the target named is D(2) dopamine receptor (Homo sapiens, UniProt P14416). Put plainly: Binding affinity to human dopamine D2 receptor by radioligand binding assay.
Series [9] in a line: Binding affinity to sigma 2 receptor (unknown origin) by radioligand binding assay. Set-up: species or system Homo sapiens.

The structures appear in SMILES notation.

D(3) dopamine receptor, sequence (P35462 whole entry): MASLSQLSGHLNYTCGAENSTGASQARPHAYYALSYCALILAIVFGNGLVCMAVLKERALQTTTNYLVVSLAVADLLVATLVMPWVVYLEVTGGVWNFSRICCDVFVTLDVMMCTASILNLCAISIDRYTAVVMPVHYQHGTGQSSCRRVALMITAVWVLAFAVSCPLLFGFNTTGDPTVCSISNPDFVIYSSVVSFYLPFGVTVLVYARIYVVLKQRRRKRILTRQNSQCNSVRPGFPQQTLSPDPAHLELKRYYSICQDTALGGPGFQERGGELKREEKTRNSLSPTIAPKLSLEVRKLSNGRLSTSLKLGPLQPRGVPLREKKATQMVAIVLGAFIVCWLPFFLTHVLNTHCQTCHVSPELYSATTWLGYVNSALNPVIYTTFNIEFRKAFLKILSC
5-hydroxytryptamine receptor 6, sequence (P50406 whole entry): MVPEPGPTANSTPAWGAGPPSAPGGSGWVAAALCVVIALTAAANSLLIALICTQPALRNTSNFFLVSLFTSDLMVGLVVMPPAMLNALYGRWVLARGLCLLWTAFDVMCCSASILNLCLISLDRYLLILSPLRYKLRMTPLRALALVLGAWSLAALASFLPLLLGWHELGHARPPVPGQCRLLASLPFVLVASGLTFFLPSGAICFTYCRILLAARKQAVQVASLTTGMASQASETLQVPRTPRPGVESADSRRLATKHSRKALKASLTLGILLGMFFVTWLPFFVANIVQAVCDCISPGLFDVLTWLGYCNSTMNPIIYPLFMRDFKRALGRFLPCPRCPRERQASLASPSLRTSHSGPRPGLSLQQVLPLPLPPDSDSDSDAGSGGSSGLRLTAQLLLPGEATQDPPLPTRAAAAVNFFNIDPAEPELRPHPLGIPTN
5-hydroxytryptamine receptor 7, sequence (P34969 whole entry): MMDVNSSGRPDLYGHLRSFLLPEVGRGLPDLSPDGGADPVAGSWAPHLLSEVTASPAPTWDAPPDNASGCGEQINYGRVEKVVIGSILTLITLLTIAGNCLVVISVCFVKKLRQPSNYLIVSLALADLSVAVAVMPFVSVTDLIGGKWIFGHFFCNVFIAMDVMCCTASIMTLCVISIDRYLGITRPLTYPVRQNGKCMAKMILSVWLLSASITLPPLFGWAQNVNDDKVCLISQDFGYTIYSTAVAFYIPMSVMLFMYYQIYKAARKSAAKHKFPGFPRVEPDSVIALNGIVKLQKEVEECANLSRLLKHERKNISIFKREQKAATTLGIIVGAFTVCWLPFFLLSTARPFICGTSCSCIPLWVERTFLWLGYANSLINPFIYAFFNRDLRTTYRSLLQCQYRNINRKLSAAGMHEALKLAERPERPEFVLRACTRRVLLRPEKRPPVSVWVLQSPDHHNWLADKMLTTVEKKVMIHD
Beta-2 adrenergic receptor, sequence (P07550 whole entry): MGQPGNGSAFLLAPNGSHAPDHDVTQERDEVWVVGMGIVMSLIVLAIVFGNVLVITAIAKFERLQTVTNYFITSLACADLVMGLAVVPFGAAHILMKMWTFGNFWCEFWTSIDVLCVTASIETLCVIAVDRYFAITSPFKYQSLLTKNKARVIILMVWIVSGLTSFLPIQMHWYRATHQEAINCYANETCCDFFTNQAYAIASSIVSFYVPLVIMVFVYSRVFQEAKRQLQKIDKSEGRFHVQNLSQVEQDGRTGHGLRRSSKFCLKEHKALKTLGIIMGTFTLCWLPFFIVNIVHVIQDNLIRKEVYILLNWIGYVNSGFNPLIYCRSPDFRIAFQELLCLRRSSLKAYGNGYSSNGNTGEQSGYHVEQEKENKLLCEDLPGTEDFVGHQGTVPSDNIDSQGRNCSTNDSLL
D(2) dopamine receptor, sequence (P14416 whole entry): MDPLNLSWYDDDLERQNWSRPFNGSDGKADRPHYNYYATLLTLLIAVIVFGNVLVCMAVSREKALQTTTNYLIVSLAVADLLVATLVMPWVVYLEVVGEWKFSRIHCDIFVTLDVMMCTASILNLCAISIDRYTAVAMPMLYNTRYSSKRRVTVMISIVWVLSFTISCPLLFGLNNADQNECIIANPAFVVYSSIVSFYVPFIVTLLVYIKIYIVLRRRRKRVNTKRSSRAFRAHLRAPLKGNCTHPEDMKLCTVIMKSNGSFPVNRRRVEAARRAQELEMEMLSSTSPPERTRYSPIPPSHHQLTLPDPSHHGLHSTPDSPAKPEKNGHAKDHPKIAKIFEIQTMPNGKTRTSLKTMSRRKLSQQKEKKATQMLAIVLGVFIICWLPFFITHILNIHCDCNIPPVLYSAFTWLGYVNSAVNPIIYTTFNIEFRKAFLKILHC
Sodium-dependent serotonin transporter, sequence (P31645 whole entry): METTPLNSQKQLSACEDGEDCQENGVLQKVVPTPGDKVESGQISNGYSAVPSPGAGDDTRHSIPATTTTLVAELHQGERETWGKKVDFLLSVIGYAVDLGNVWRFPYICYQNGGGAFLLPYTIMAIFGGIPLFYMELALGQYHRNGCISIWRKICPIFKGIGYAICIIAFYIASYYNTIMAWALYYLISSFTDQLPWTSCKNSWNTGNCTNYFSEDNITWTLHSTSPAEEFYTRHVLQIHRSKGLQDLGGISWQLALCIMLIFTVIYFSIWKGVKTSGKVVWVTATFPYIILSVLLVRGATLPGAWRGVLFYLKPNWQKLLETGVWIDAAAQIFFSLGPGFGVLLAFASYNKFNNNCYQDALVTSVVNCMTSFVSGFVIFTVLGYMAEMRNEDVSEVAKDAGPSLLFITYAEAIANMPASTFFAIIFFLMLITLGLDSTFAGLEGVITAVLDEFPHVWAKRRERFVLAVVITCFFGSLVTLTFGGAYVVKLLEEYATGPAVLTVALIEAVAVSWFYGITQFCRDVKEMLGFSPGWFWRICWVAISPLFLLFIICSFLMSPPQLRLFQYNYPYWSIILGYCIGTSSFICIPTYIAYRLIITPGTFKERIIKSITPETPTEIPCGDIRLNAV
Histamine H2 receptor, sequence (P25021 whole entry): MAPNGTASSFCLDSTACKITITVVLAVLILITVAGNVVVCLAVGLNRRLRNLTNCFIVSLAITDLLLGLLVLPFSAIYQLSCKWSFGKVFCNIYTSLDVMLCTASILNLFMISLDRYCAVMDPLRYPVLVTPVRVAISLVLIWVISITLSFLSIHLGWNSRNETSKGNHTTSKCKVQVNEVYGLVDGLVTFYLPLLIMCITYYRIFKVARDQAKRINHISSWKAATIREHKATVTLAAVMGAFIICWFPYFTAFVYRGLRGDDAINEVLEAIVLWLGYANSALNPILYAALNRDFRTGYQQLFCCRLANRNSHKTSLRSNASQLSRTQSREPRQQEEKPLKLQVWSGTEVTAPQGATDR

One may read the pKi as −log10 of the Ki, conventionally taken in molar units. A low value points to a high Ki. Regarding `C=CCOc1cc(F)c(F)cc1C1CC1CN.Cl` (single isomer, unassigned; (+)), the Ki was 0.807 µM in series [1]; 1.68 µM on D(4) dopamine receptor; 1.26 µM in series [2]; 2.84 µM in series [3]; 0.201 µM on D(3) dopamine receptor (read-out: Ki); 0.195 µM at D(3) dopamine receptor (read-out: pKi (converted)). Further, the Ki in series [4] (read-out: Ki) was 1.27 µM; in series [4] (read-out: pKi (converted)), 1.02 µM; in series [5] it was 0.278 µM; in [6] (read-out: Ki), 0.111 µM; in series [6] (read-out: pKi (converted)), 0.115 µM; in series [7] (read-out: Ki) it was 0.661 µM. The Ki in [7] (read-out: pKi (converted)) was 0.166 µM; in series [8] (read-out: Ki), 0.75 µM; in series [8] (read-out: pKi (converted)), 0.933 µM; on Histamine H2 receptor, 3.39 µM; on D(2) dopamine receptor, 4.9 µM; in series [9], 2.11 µM. For the same molecule, the Activity result in the series on Mus musculus was “Non-toxic”. For the same molecule, the negative logarithm of the Ki (pKi) in [9] is listed as 5.68.

The record behind these values is ChEMBL document CHEMBL3769385 (J Med Chem, 2016).
